Measured values taken from patent publication US7091220B2, “Substituted indole Mannich bases” (Gruenenthal GmbH, priority 1999, dated 2006).
Like-named read-outs stand apart in the source and are kept apart here.

Assays:
[1] = tested on: α2-subtype of the human α-adrenergic receptor; test: SPA test, affinity for the α2-subtype of the human α-adrenergic receptor; format: binding
Experimental: Wide-ranging testing of the indole Mannich bases according to the invention for their activity was carried out by the conventional high throughput screening methods, such as are described in John P. Devlin, High Throughput Screening, 1997, Marcel Dekker Inc. They are introduced here as a reference and are therefore part of the disclosure.
The action of the indole Mannich bases according to the invention is determined in particular by the affinity for the N-methyl-D-aspartate (NMDA) receptor family, for (α-adrenergic receptors and opioid receptors.
The compounds of the general formula 1 according to the invention investigated are suitable as ligands for the α2-subtype of the human α-adrenergic receptor, which is of importance for pain sensation.
The affinity of the compounds according to the invention for this α2-subtype of the α-adrenergic receptor has been determined with the aid of the SPA test such as is described in John P. Devlin, High Throughput Screening, Marcel Dekker Inc. 1997, pages 307 to 316. This literature is introduced herewith as a reference and is therefore part of the disclosure. The affinities of the compounds according to the invention were in each case determined at a concentration of 10 μM.

5-HT transporter = target: T1, 5-HT transporter (Rattus norvegicus, UniProt P31652); test: Inhibition of serotonin re-uptake (5-HT uptake inhibition) in rat brain synaptosomes; format: biochemical; settings: rat brain synaptosomes (P2 fraction, pons and medulla oblongata); means from 2 parallel experiments; concentration not given
T1 construct: these vesicular particles were isolated from the pons and medulla oblongata region of the male rat brain; from tissue; host or cells: rat brain synaptosomes (P2 fraction) from pons and medulla oblongata of male rats
T1 sequence (P31652 whole entry): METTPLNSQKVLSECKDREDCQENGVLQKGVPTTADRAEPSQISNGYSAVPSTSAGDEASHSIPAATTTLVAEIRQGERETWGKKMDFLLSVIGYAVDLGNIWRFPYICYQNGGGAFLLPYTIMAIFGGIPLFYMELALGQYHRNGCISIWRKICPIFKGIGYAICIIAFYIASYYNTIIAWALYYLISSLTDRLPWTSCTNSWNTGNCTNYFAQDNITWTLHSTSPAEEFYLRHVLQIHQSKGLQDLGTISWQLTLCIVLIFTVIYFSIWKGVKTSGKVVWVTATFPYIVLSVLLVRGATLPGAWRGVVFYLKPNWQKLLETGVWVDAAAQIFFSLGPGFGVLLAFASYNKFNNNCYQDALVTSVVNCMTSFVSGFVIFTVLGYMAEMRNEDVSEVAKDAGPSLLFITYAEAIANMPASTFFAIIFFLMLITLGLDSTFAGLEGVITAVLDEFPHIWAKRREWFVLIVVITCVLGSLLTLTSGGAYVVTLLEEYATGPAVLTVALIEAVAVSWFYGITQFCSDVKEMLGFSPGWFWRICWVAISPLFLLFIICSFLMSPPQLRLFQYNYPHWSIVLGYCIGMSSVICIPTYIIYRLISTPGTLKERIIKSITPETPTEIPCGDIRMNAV
Experimental: The investigations of the inhibition of serotonin re-uptake (5-HT uptake inhibition) were carried out by the methods such as are described in M. Ch. Frink, H. -H. -Hennies, W. Englberger, M. Haurand and B. Wilffert, Arzneim.-Forsch./Drug. Res. 46 (III), 11, 1996, pages 1029–1036. They are introduced herewith as reference and thus form part of the disclosure.
To carry out these investigations, synaptosomes were freshly isolated from rat brain areas. In each case the so-called “P2” fraction was used, which was prepared according to the instructions in E. G. Gray and V. P. Whittaker, J. Anat. 76, pages 79–88, 1962. This literature is introduced herewith as reference and thus forms part of the disclosure. For determination of the 5-HT uptake, these vesicular particles were isolated from the pons and medulla oblongata region of the male rat brain.
The following characteristic data were determined for the 5-HT transporter: • 5-HT uptake: Km=0.084±0.011 μM • Vmax: 38.13±4.52 pmol/min/mg protein.
The results of the investigations are in each case stated as means from 2 parallel experiments.

Row | Compound | % Inhibition of α2 (humans), 10 μM [1] [%] | Inhibition of 5HT uptake in % (5-HT transporter) [%] | other results
1 | CN(C)C(c1c(F)cccc1Cl)c1c(-c2ccc(Cl)cc2)[nH]c2ccccc12 (stereo not shown) [Example 67, {(2-Chloro-6-fluoro-phenyl)-[2-(4-chloro-phenyl)-1H-indol-3-yl]-methyl}-dimethyl-amine] | 36 | – | –
2 | CN(C)C(c1cccc(Br)c1)c1cn(C)c2ccccc12 (stereo not shown) [Example 60, [(3-Bromo-phenyl)-(1-methyl-1H-indol-3-yl)-methyl]-dimethyl-amine] | 66 | – | –
3 | CN(C)C(c1ccc(Cl)cc1Cl)c1cn(C)c2ccccc12 (stereo not shown) [Example 71, [(2,4-Dichloro-phenyl)-(1-methyl-1H-indol-3-yl)-methyl]-dimethyl-amine] | 50 | – | –
4 | CN(C)C(c1c(F)cccc1Cl)c1c(-c2ccccc2)[nH]c2ccccc12 (stereo not shown) [Example 66, [(2-Chloro-6-fluoro-phenyl)-(2-phenyl-1H-indol-3-yl)-methyl]-dimethyl-amine] | – | – | % Inhibition of α2 (humans), 10 μM ([1]; 10 µM): 44%
5 | CN(C)C(c1cccc(Cl)c1Cl)c1cn(C)c2ccccc12 (stereo not shown) [Example 70, [(2,3-Dichloro-phenyl)-(1-methyl-1H-indol-3-yl)-methyl]-dimethyl-amine] | 63 | – | –
6 | CN(C)C(c1ccc(F)cc1Cl)c1c[nH]c2cccc([N+](=O)[O-])c12 (stereo not shown) [Example 64, [(2-Chloro-4-fluoro-phenyl)-(4-nitro-1H-indol-3-yl)-methyl]-dimethyl-amine] | 48 | – | –
7 | CCn1c(-c2ccccc2)c(C(c2ccc(C(C)(C)C)cc2)N(C)C)c2ccccc21 (stereo not shown) [Example 62, [(4-tert-Butyl-phenyl)-(1-ethyl-2-phenyl-1H-indol-3-yl)-methyl]-dimethyl-amine] | 51 | – | –
8 | Cc1[nH]c2ccc([N+](=O)[O-])cc2c1C(c1ccccc1)N(C)C (stereo not shown) [Example 15, Dimethyl-[(2-methyl-5-nitro-1H-indol-3-yl)-phenylmethyl]-amine] | 40 | – | –
9 | CN(C)C(c1c(F)cccc1Cl)c1c[nH]c2cccc([N+](=O)[O-])c12 (stereo not shown) [Example 55, [(2-Chloro-6-fluoro-phenyl)-(4-nitro-1H-indol-3-yl)-methyl]-dimethyl-amine] | 49 | – | –
10 | CN(C)C(c1c(F)cccc1Cl)c1c(-c2ccccc2)[nH]c2ccccc12 (stereo not shown) [Example 53, [(2-Chloro-6-fluoro-phenyl)-(2-phenyl-1H-indol-3-yl)-methyl]-dimethylamine] | – | – | % Inhibition of α2 (humans), 10 μM ([1]; 10 µM): 38%
11 | CN(C)C(c1ccccc1Br)c1c[nH]c2cccc([N+](=O)[O-])c12 (stereo not shown) [Example 57, [(2-Bromo-phenyl)-(4-nitro-1H-indol-3-yl)-methyl]-dimethyl-amine] | 64 | – | –
12 | CCc1cccc2c(C(c3cccc(Br)c3)N(C)C)c[nH]c12 (stereo not shown) [Example 59, [(3-Bromo-phenyl)-(7-ethyl-1H-indol-3-yl)-methyl]-dimethyl-amine] | 37 | – | –
13 | Cc1cccc2[nH]cc(C(c3ccc(F)cc3Cl)N(C)C)c12 (stereo not shown) [Example 65, [(2-Chloro-4-fluoro-phenyl)-(4-methyl-1H-indol-3-yl)-methyl]-dimethyl-amine] | 42 | – | –
14 | Cc1ccc(C(c2c[nH]c3ccc(Cl)cc23)N(C)C)cc1 (stereo not shown) [Example 94, [(5-Chloro-1H-indol-3-yl)-p-tolyl-methyl]-dimethyl-amine] | – | 64 | –
15 | Cc1[nH]c2ccccc2c1C(c1ccc(C(C)(C)C)cc1)N(C)C (stereo not shown) [Example 61, [(4-tert-Butyl-phenyl)-(2-methyl-1H-indol-3-yl)-methyl]-dimethyl-amine] | 63 | – | –
16 | CCn1c(-c2ccccc2)c(C(c2ccc(OC)c(OC)c2)N(C)C)c2ccccc21 (stereo not shown) [Example 80, [(3,4-Dimethoxy-phenyl)-(1-ethyl-2-phenyl-1H-indol-3-yl)-methyl]-dimethyl-amine] | – | 42 | –
17 | COc1ccc(C(c2c(-c3ccc(Cl)cc3)[nH]c3ccccc23)N(C)C)cc1OC (stereo not shown) [Example 79, [[2-(4-Chloro-phenyl)-1H-indol-3-yl]-(3,4-dimethoxy-phenyl)-methyl]-dimethyl-amine] | – | 50 | –
18 | CN(C)C(c1cc(Br)ccc1F)c1cn(C)c2ccccc12 (stereo not shown) [Example 52, [(5-Bromo-2-fluoro-phenyl)-(1-methyl-1H-indol-3-yl)-methyl]-dimethyl-amine] | 37 | – | –
19 | CCc1cccc2c(C(c3cccc(Oc4ccccc4)c3)N(C)C)c[nH]c12 (stereo not shown) [Example 97, [(7-Ethyl-1H-indol-3-yl)-(3-phenoxy-phenyl)-methyl]-dimethyl-amine] | – | 79 | –

Row | Compound | % Inhibition of α2 (humans), 10 μM [1] [%] | Inhibition of 5HT uptake in % (5-HT transporter) [%] | other results
20 | COc1ccc(C(c2c(-c3ccc(F)cc3)[nH]c3ccccc23)N(C)C)cc1OC (stereo not shown) [Example 83, [(3,4-Dimethoxy-phenyl)-[2-(4-fluoro-phenyl)-1H-indol-3-yl]-methyl]-dimethylamine] | – | 39 | –
21 | 5-Benzyloxy-3-(phenyl-pyrrolidin-yl-methyl)-1H-indole [Example 50] | 51 | – | –
22 | NC(c1cccc(Oc2ccccc2)c1)c1c(-c2ccc(F)c(Cl)c2)[nH]c2ccccc12 (stereo not shown) [Example 100, [[2-(3-Chloro-4-fluoro-phenyl)-1H-indol-3-yl]-(3-phenoxy-phenyl)-methyl]-amine] | – | 48 | –
23 | CCc1cccc2c(C(c3ccccc3OC)N(C)C)c[nH]c12 (stereo not shown) [Example 87, [(7-Ethyl-1H-indol-3-yl)-(2-methoxy-phenyl)-methyl]-dimethyl-amine] | – | 50 | –
24 | COc1cccc(C(c2c[nH]c3c2CC=C(C(=O)O)C3)N(C)C)c1OC (stereo not shown) [Example 76, 3-[(2,3-Dimethoxy-phenyl)-dimethylamino-methyl]-4,7-dihydro-1H-indole-6-carboxylic Acid] | – | 42 | –
25 | CCn1c(-c2ccccc2)c(C(c2c(F)cccc2Cl)N(C)C)c2ccccc21 (stereo not shown) [Example 54, [(2-Chloro-6-fluoro-phenyl)-(1-ethyl-2-phenyl-1H-indol-3-yl)-methyl]-dimethylamine] | 55 | – | –
26 | Cc1cccc2[nH]cc(C(c3cccc(Oc4ccccc4)c3)N(C)C)c12 (stereo not shown) [Example 101, Dimethyl-[(4-methyl-1H-indol-3-yl)-(3-phenoxy-phenyl)-methyl]-amine] | – | 41 | –
27 | CN(C)C(c1ccccc1F)c1c[nH]c2ccc(Cl)cc12 (stereo not shown) [Example 85, [(5-Chloro-1H-indol-3-yl)-(2-fluoro-phenyl)-methyl]-dimethyl-amine] | – | 44 | –
28 | CN(C)C(c1c(F)cccc1Cl)c1cn(C)c2ccccc12 (stereo not shown) [Example 68, [(2-Chloro-6-fluoro-phenyl)-(1-methyl-1H-indol-3-yl)-methyl]-dimethyl-amine] | – | – | % Inhibition of α2 (humans), 10 μM ([1]; 10 µM): 88%
29 | CN(C)C(c1cccc(Oc2ccccc2)c1)c1cn(C)c2ccccc12 (stereo not shown) [Example 98, Dimethyl-[(1-methyl-1H-indol-3-yl)-(3-phenoxy-phenyl)-methyl]-amine] | – | 66 | –
30 | CN(C)C(c1cc(Br)ccc1F)c1c[nH]c2cccc([N+](=O)[O-])c12 (stereo not shown) [Example 51, [(5-Bromo-2-fluoro-phenyl)-(4-nitro-1H-indol-3-yl)-methyl]-dimethyl-amine] | 43 | – | –
31 | CN(C)C(c1ccc(C(C)(C)C)cc1)c1cn(C)c2ccccc12 (stereo not shown) [Example 63, [(4-tert-Butyl-phenyl)-(1-methyl-1H-indol-3-yl)-methyl]-dimethyl-amine] | 60 | – | –
32 | CN(C)C(c1ccccc1Br)c1cn(C)c2ccccc12 (stereo not shown) [Example 58, [(2-Bromo-phenyl)-(1-methyl-1H-indol-3-yl)-methyl]-dimethyl-amine] | 82 | – | –
33 | CN(C)C(c1cccc(Cl)c1)c1cn(C)c2ccccc12 (stereo not shown) [Example 69, [(3-Chloro-phenyl)-(1-methyl-1H-indol-3-yl)-methyl]-dimethyl-amine] | 75 | – | –
34 | COc1ccccc1C(c1c(C)[nH]c2ccccc12)N(C)C (stereo not shown) [Example 44, [(2-Methoxyphenyl)-(2-methyl-1H-indol-3-yl)-methyl]-dimethylamine] | – | 48 | –
35 | CN(C)C(c1cccc(Oc2ccccc2)c1)c1c(-c2ccc(F)cc2)[nH]c2ccccc12 (stereo not shown) [Example 99, [[2-(4-Fluoro-phenyl)-1H-indol-3-yl]-(3-phenoxy-phenyl)-methyl]-dimethyl-amine] | – | 42 | –
36 | Cc1ccc(C(c2c(C)[nH]c3ccccc23)N(C)C)cc1 (stereo not shown) [Example 93, Dimethyl-[(2-methyl-1H-indol-3-yl)-p-tolyl-methyl]-amine] | – | 78 | –
37 | COc1cccc(C(c2c[nH]c3cccc([N+](=O)[O-])c23)N(C)C)c1OC (stereo not shown) [Example 75, [(2,3-Dimethoxy-phenyl)-(4-nitro-1H-indol-3-yl)-methyl]-dimethylamine] | – | 39 | –
